In patent publication US9624229B2, “Pyrimidine-2-amine compounds and their use as inhibitors of JAK kinases” (Rigel Pharmaceuticals, Inc., priority 2008, dated 2017):

What follows are compounds tested against Ba/F3 V617F cells (Homo sapiens, UniProt O60674, V617F, cells depend on it) (assay: Proliferation assay (Cell Titer-Glo, 72 h) utilizing Ba/F3 V617F cells). Settings: Ba/F3 V617F cells, proliferation, level of activity given as class symbol, read-out: IC50 (the source's name).
Type: cell-based, mouse
Procedure: Ba/F3 V617F cells are maintained and plated in RPMI with 10% FBS. Plating density for these cells is 1×10^5 cells/mL.
The cells were resuspended in a corresponding medium at a required cell density (see above). 100μ of cell suspension was added to each well of a flat bottom 96 well white plate. The compound was serially diluted in DMSO from 5 mM in 3-fold dilutions, and then diluted 1:250 in the RPMI 1640 medium containing 5% FBS and pen/strep. 100 μL of resulting 2× compound solution was added per well in duplicate and the cells were allowed to proliferate for 72 hours at 37° C.
Proliferation was measured using Cell Titer-Glo. The substrate was thawed and allowed to come to ambient temperature. After removal of top 100 μL of medium from each well, 100 μL of the premixed Cell Titer-Glo reagent was added to each well. The plates were mixed on an orbital shaker for three minutes to induce lysis and incubated at ambient temperature for an additional five minutes to allow the signal to equilibrate. The Luminescence was read on the Wallac Plate Reader.
The results of the ability of the compounds of the invention to inhibit JAK2 activity, when tested in the above assay utilizing Ba/F3 V617F cells, are shown in the following Tables 2-3 wherein the level of activity (i.e., the IC50) for each compound is indicated in Tables 2-3. The compound numbers in Tables 2-3 refers to the compounds disclosed herein as being prepared by the methods disclosed herein: […]

Sequence of Ba/F3 V617F cells (O60674 whole entry V617F): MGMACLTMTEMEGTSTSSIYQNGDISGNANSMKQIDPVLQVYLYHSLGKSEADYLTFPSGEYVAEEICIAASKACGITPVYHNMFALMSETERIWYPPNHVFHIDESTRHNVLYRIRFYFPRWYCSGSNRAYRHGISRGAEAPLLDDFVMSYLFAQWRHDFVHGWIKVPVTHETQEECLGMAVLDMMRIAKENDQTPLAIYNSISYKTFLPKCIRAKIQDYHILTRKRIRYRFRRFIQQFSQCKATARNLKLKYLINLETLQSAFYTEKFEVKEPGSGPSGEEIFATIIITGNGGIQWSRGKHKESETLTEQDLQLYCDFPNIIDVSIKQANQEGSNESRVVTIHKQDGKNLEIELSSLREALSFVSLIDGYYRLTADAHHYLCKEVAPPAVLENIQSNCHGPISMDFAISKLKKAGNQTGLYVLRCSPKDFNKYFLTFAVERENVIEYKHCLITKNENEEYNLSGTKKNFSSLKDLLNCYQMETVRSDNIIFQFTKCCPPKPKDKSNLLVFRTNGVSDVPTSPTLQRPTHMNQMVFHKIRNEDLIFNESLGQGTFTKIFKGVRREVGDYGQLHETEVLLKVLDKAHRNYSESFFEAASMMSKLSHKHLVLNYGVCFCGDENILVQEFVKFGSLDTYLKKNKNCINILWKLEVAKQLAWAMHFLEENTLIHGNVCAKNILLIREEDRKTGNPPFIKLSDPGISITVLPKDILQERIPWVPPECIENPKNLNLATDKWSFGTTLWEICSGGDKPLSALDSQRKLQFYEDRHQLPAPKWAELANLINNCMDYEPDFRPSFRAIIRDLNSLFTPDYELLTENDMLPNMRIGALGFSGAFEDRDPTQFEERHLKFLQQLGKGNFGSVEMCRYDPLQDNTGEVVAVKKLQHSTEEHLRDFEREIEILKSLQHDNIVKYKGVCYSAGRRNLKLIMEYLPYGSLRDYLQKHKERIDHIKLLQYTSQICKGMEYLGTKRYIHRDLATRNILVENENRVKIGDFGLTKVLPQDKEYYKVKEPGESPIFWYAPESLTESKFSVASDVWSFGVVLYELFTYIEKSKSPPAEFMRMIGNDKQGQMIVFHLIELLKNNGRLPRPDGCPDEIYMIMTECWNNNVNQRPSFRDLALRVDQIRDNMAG

Compound | GI50 [nM]
Cc1cc(Nc2nccc(-c3ccc4c(c3)OC(C)(C)C(=O)N4)n2)ccc1N1CCN2C(C1)[C@H]1CC[C@@H]2C1 (stereo partly drawn) [compound 244, 4-(2,2-dimethyl-3-oxo-3,4-dihydro-2H-benzo[b][1,4]oxazin-7-yl)-N-(3-methyl-4-((6R,9S)-6,9-methanooctahydro-1H-pyrido[1,2-a]pyrazin-2-yl)phenyl)pyrimidin-2-amine] | < 1000
CS(=O)(=O)N1CC2CC1CC2c1ccc(Nc2nccc(-c3ccc(N4CCOCC4)nc3)n2)cc1 (centres unmarked) [compound 227, 4-(6-(morpholin-4-yl)pyridin-3-yl)-N-(4-(2-methylsulfonyl-2-azabicyclo[2.2.1]heptan-5-yl)phenyl)pyrimidin-2-amine] | < 1000
Cc1cc(Nc2nccc(-c3ccc4c(ccn4-c4ccncc4)c3)n2)ccc1N1C[C@@H]2C[C@H]1CN2C [compound 232, 4-(1-(pyridin-4-yl)-1H-indol-5-yl)-N-(3-methyl-4-((1S,4S)-5-methyl-2,5-diazabicyclo[2.2.1]heptan-2-yl)phenyl)pyrimidin-2-amine] | < 1000
CN1C[C@@H]2C[C@H]1CN2c1ccc(Nc2nccc(-c3ccc4c(c3)CCCC(=O)N4)n2)cc1C#N [compound 272, 4-(2-oxo-2,3,4,5-tetrahydro-1H-benzo[b]azepin-7-yl)-N-(3-cyano-4-((1S,4S)-5-methyl-2,5-diazabicyclo[2.2.1]heptan-2-yl)phenyl)pyrimidin-2-amine] | < 1000

Results, then the compound that gave them:

GI50 [nM] | Compound
< 1000 | Cc1cc(Nc2nccc(-c3ccc(C(F)(F)F)cc3)n2)ccc1N1C[C@@H]2C[C@H]1CN2C [compound 269, 4-(4-(trifluoromethyl)phenyl)-N-(3-methyl-4-((1S,4S)-5-methyl-2,5-diazabicyclo[2.2.1]heptan-2-yl)phenyl)pyrimidin-2-amine]
< 1000 | Cc1cc(Nc2nccc(-c3ccc(N4C[C@@H](C)O[C@@H](C)C4)nc3)n2)ccc1N1C[C@@H]2C[C@H]1CN2C [compound 187, 4-(6-(cis-2,6-dimethylmorpholin-4-yl)pyridin-3-yl)-N-(3-methyl-4-((1S,4S)-5-methyl-2,5-diazabicyclo[2.2.1]heptan-2-yl)phenyl)pyrimidin-2-amine]
< 1000 | Cc1cc(Nc2nccc(-c3ccnc(C(F)(F)F)c3)n2)ccc1N1C[C@@H]2C[C@H]1CN2C [compound 256, 4-(2-(trifluoromethyl)pyridin-4-yl)-N-(3-methyl-4-((1S,4S)-5-methyl-2,5-diazabicyclo[2.2.1]heptan-2-yl)phenyl)pyrimidin-2-amine]
< 1000 | COCCN(C)c1ccc(-c2ccnc(Nc3ccc(N4C[C@@H]5C[C@H]4CN5C)c(C)c3)n2)cn1 [compound 219, 4-(6-(2-methoxyethyl)(methyl)aminopyridin-3-yl)-N-(3-methyl-4-((1S,4S)-5-methyl-2,5-diazabicyclo[2.2.1]heptan-2-yl)phenyl)pyrimidin-2-amine]
< 1000 | CCCNc1ccc(-c2ccnc(Nc3ccc(N4C[C@@H]5C[C@H]4CO5)c(C)c3)n2)cn1 [compound 202, 4-(6-(propylamino)pyridin-3-yl)-N-(3-methyl-4-((1S,4S)-5-oxa-2-azabicyclo[2.2.1]heptan-2-yl)phenyl)pyrimidin-2-amine]

Same assay, conditions: Ba/F3 V617F cells, proliferation, level of activity to inhibit JAK2, read-out: IC50 (the source's name)

Compound | GI50 [nM]
CN1C(=O)C(C)(C)Oc2cc(-c3ccnc(Nc4ccc(N5C[C@@H]6C[C@H]5CN6C)c(F)c4)n3)cnc21 [compound 126, 4-(2,2,4-trimethyl-3-oxo-3,4-dihydro-2H-pyrido[3,2-b][1,4]oxazin-7-yl)-N-(3-fluoro-4-((1S,4S)-5-methyl-2,5-diazabicyclo[2.2.1]heptan-2-yl)phenyl)pyrimidin-2-amine] | < 1000
Cc1cc(Nc2nccc(-c3ccc(NC4CCCCC4)nc3)n2)ccc1N1CC2(C)CN(C)CC(C)(C1)C2 [compound 77, 4-(6-(cyclohexylamino)pyridin-3-yl)-N-(3-methyl-4-(1,5,7-trimethyl-3,7-diazabicyclo[3.3.1]nonan-3-yl)phenyl)pyrimidin-2-amine] | < 1000
Cc1cc(Nc2nccc(-c3cnc4[nH]ccc4c3)n2)ccc1N1C[C@@H]2C[C@H]1CO2 [compound 33, 4-(1H-pyrrolo[2,3-b]pyridin-5-yl)-N-(3-methyl-4-((1S,4S)-5-oxa-2-azabicyclo[2.2.1]heptan-2-yl)phenyl)pyrimidin-2-amine] | < 1000
Cc1cc(Nc2nccc(-c3ccc(NS(C)(=O)=O)nc3)n2)ccc1N1CC2CCC(C1)N2C [compound 167, 4-(6-(methylsulfonylamino)pyridin-3-yl)-N-(3-methyl-4-(8-methyl-3,8-diazabicyclo[3.2.1]octan-3-yl)phenyl)pyrimidin-2-amine] | < 1000
Cc1cc(Nc2nccc(-c3ccc(N4C[C@@H]5C[C@H]4CN5C)nc3)n2)ccc1N1CCN(C)CC1 [compound 12, 4-(6-((1S,4S)-5-methyl-2,5-diazabicyclo-[2.2.1]-heptan-2-yl)pyridin-3-yl)-N-(3-methyl-4-(4-methyl-piperazin-1-yl)phenyl)-pyrimidin-2-amine] | 1000 to 10000
Cc1cc(-c2ccnc(Nc3ccc(N4CC5(C)CN(C)CC(C)(C4)C5)c(F)c3)n2)cnc1N1CCOCC1 [compound 82, 4-(5-methyl-6-(morpholin-4-yl)pyridin-3-yl)-N-(3-fluoro-4-(1,5,7-trimethyl-3,7-diazabicyclo[3.3.1]nonan-3-yl)phenyl)pyrimidin-2-amine] | < 1000
CN1C[C@@H]2C[C@H]1CN2c1ccc(Nc2nccc(-c3cc[nH]c3)n2)cc1C(F)(F)F [compound 171, 4-(1H-pyrrol-3-yl)-N-(3-trifluoromethyl-4-((1S,4S)-5-methyl-2,5-diazabicyclo[2.2.1]heptan-2-yl)phenyl)pyrimidin-2-amine] | < 1000
CN1C[C@@H]2C[C@H]1CN2c1ccc(Nc2nccc(-c3cnc4c(c3)OC(C)(C)C(=O)N4)n2)cc1 [compound 137, 4-(2,2-dimethyl-3-oxo-3,4-dihydro-2H-pyrido[3,2-b][1,4]oxazin-7-yl)-N-(4-((1S,4S)-5-methyl-2,5-diazabicyclo[2.2.1]heptan-2-yl)phenyl)pyrimidin-2-amine] | < 1000
Cc1cc(Nc2ncc(F)c(-c3ccc(N(C)C)nc3)n2)ccc1N1C[C@@H]2C[C@H]1CN2C [compound 4, 4-(6-(N,N-dimethylamino)pyridin-3-yl)-5-fluoro-N-(3-methyl-4-((1S,4S)-5-methyl-2,5-diazabicyclo[2.2.1]heptan-2-yl)phenyl)pyrimidin-2-amine] | < 1000

Now from value to compound:

GI50 [nM] | Compound
< 1000 | Cc1cc(Nc2nccc(-c3ccc(C(C)(C)C)cc3)n2)ccc1N1C[C@@H]2C[C@H]1CN2C [compound 46, 4-(4-(1,1-dimethylethyl)phenyl)-N-(3-methyl-4-((1S,4S)-5-methyl-2,5-diazabicyclo[2.2.1]heptan-2-yl)phenyl)pyrimidin-2-amine]
< 1000 | CC(=O)Nc1ccc(-c2ccnc(Nc3ccc(N4C[C@@H]5C[C@H]4CN5C)c(C)c3)n2)cn1 [compound 132, 4-(6-(acetamido)pyridin-3-yl)-N-(3-methyl-4-((1S,4S)-5-methyl-2,5-diazabicyclo[2.2.1]heptan-2-yl)phenyl)pyrimidin-2-amine]
< 1000 | CCC(=O)N1C[C@@H]2C[C@H]1CN2c1ccc(Nc2nccc(-c3ccc(N)nc3)n2)cc1C [compound 148, 4-(6-aminopyridin-3-yl)-N-(3-methyl-4-((1S,4S)-5-ethylcarbonyl-2,5-diazabicyclo[2.2.1]heptan-2-yl)phenyl)pyrimidin-2-amine]
1000 to 10000 | Cc1cc(Nc2nccc(-c3ccc(NCCNS(=O)(=O)C4CC4)nc3)n2)ccc1N1C[C@@H]2C[C@H]1CN2C [compound 99, 4-(6-((2-(cyclopropylsulfonyl)aminoethyl)-amino)pyridin-3-yl)-N-(3-methyl-4-((1S,4S)-5-methyl-2,5-diazabicyclo[2.2.1]heptan-2-yl)phenyl)pyrimidin-2-amine]
1000 to 10000 | Cc1cc(Nc2nccc(-c3ccc(CC(=O)NC4CC4)cc3)n2)ccc1N1C[C@@H]2C[C@H]1CN2C [compound 49, 4-(4-((cyclopropyl)aminocarbonyl-methyl)phenyl)-N-(3-methyl-4-((1S,4S)-5-methyl-2,5-diazabicyclo[2.2.1]heptan-2-yl)phenyl)pyrimidin-2-amine]
< 1000 | CCOCCCNc1ccc(-c2ccnc(Nc3ccc(N4C[C@@H]5C[C@H]4CN5C)c(C)c3)n2)cn1 [compound 186, 4-(6-(3-ethoxypropyl)aminopyridin-3-yl)-N-(3-methyl-4-((1S,4S)-5-methyl-2,5-diazabicyclo[2.2.1]heptan-2-yl)phenyl)pyrimidin-2-amine]

Same assay, conditions: inhibition of JAK2 activity, proliferation of Ba/F3 V617F cells, read-out: IC50 (the source's name)

GI50 [nM] | Compound
< 1000 | Cc1cc(Nc2nccc(-c3ccc(NC(=O)C(C)(C)C)cc3)n2)cnc1N1C[C@@H]2C[C@H]1CN2C [compound 131, 4-(4-(t-butylcarbonylamino)phenyl)-N-(5-methyl-6-((1S,4S)-5-methyl-2,5-diazabicyclo[2.2.1]heptan-2-yl)pyridin-3-yl)pyrimidin-2-amine]
1000 to 10000 | CN(C)c1ccc(-c2ccnc(Nc3ccc(N4C[C@@H]5C[C@H]4CN5C)nc3)n2)cc1 [compound 56, 4-(4-(dimethylamino)phenyl)-N-(6-((1S,4S)-5-methyl-2,5-diazabicyclo[2.2.1]heptan-2-yl)pyridin-3-yl)pyrimidin-2-amine]
